{"source": "ChEMBL document CHEMBL4402534", "about": "“Dihydroorotate dehydrogenase inhibitors in anti-infective drug research” (Eur J Med Chem, 2019)", "key": {"[1]": {"assay": "Inhibition of Helicobacter pylori DHODH"}, "Helicobacter pylori": {"system": "Helicobacter pylori", "assay": "Antibacterial activity against Helicobacter pylori by whole cell-based assay", "type": "functional"}, "Yellow fever virus": {"system": "Yellow fever virus", "assay": "Antiviral activity against Yellow fever virus infected in human A549 cells assessed as reduction in virus replication", "type": "functional, organism-based"}, "[2]": {"system": "Western equine encephalitis virus", "assay": "Antiviral activity against Western equine encephalomyelitis virus infected in human A549 cells assessed as reduction in virus replication", "type": "functional, organism-based"}, "Dengue virus [3]": {"system": "Dengue virus", "assay": "Antiviral activity against Dengue virus infected in human A549 cells assessed as reduction in virus replication", "type": "functional, organism-based"}, "[4]": {"system": "Vesicular stomatitis virus", "assay": "Antiviral activity against Vesicular stomatitis virus infected in human A549 cells assessed as reduction in virus replication", "type": "functional, organism-based"}, "West Nile virus": {"system": "West Nile virus", "assay": "Antiviral activity against West Nile virus infected in human A549 cells assessed as reduction in virus replication", "type": "functional, organism-based"}, "[5]": {"molecular_target": "T1, Dihydroorotate dehydrogenase (quinone), mitochondrial (Homo sapiens, UniProt Q02127)", "T1 sequence (Q02127 whole entry)": "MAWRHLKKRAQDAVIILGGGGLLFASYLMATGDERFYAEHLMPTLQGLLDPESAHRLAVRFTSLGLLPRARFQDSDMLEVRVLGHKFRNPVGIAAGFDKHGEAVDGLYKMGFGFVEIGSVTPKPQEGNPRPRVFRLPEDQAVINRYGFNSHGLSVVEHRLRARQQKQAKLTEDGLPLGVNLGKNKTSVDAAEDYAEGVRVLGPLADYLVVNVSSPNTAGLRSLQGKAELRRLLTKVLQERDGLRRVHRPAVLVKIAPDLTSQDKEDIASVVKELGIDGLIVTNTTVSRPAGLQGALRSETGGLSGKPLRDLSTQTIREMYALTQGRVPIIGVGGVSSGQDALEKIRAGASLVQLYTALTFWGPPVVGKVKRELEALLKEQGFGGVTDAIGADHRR", "assay": "Inhibition of human DHODH"}, "[6]": {"assay": "Inhibition of Plasmodium falciparum DHODH"}, "[7]": {"assay": "Inhibition of Babesia bovis DHODH"}, "Dengue virus [8]": {"system": "Dengue virus", "assay": "Antiviral activity against Dengue virus assessed as reduction in virus replication", "type": "functional, organism-based"}, "[9]": {"molecular_target": "T1, Dihydroorotate dehydrogenase (quinone), mitochondrial", "assay": "Inhibition of DHODH (unknown origin)"}, "[10]": {"assay": "Selectivity index, ratio of IC50 for human DHODH to IC50 for Schistosoma mansoni DHODH"}, "Human alphaherpesvirus 1": {"system": "Human alphaherpesvirus 1", "assay": "Antiviral activity against Herpes simplex viruses type 1", "type": "functional, organism-based"}, "Human alphaherpesvirus 3": {"system": "Human alphaherpesvirus 3", "assay": "Antiviral activity against Varicella zoster virus", "type": "functional, organism-based"}, "[11]": {"assay": "Antiviral activity against Human herpesvirus 6 type A", "type": "functional, Human herpesvirus 6A"}, "Cytomegalovirus": {"system": "Cytomegalovirus", "assay": "Antiviral activity against Cytomegalovirus", "type": "functional, organism-based", "conditions": "Human betaherpesvirus 5"}, "Human alphaherpesvirus 2": {"system": "Human alphaherpesvirus 2", "assay": "Antiviral activity against Herpes simplex viruses type 2", "type": "functional, organism-based"}, "[12]": {"assay": "Inhibition of Enterococcus faecalis DHODH"}, "[13]": {"assay": "Inhibition of Escherichia coli DHODH"}, "[14]": {"assay": "Inhibition of Aspergillus fumigatus DHODH"}}, "note": "pEC50, pIC50, pKi: −log10 of the molar value.", "data": [{"smiles": "CCCCCCCCc1[nH]c2ccccc2c(=O)c1C", "values": [{"measurement": "pIC50", "setting": "[1]", "result": 5.34}]}, {"smiles": "O=C(NCc1ccccc1)c1cc(C(=O)Nc2ccccc2)n(-c2ccc(Cl)cc2)n1", "values": [{"measurement": "MIC", "setting": "Helicobacter pylori", "result": 0.125, "unit": "µg/mL"}, {"measurement": "pKi", "setting": "[1]", "result": 8.40}]}, {"smiles": "COC(=O)c1c(-c2c(Cl)cccc2Cl)noc1-c1cnn(-c2cccc(Cl)c2)c1C(F)(F)F", "values": [{"measurement": "pEC50", "setting": "Yellow fever virus", "result": 8.62}, {"measurement": "pEC50", "setting": "[2]", "result": 8.62}, {"measurement": "pEC50", "setting": "Dengue virus [3]", "result": 8.62}, {"measurement": "pEC50", "setting": "[4]", "result": 8.62}, {"measurement": "pEC50", "setting": "West Nile virus", "result": 8.62}, {"measurement": "pIC50", "setting": "[5]", "result": 6.99}]}, {"smiles": "Cc1nc2cc(OC(F)(F)F)ccc2n1-c1ccc(C(=O)NC2CC2)s1", "values": [{"measurement": "pIC50", "setting": "[6]", "result": 6.66}]}, {"smiles": "Cc1cc(Nc2ccc(S(F)(F)(F)(F)F)cc2)n2ncnc2n1", "values": [{"measurement": "pIC50", "setting": "[6]", "result": 6.89}]}, {"smiles": "Cc1c(-c2ccc(-c3ccccc3F)cc2)nc2ccc(F)cc2c1C(=O)O", "note": "[BREQUINAR]", "values": [{"measurement": "pEC50", "setting": "Yellow fever virus", "result": 7.11}, {"measurement": "pEC50", "setting": "[2]", "result": 7.11}, {"measurement": "pEC50", "setting": "Dengue virus [3]", "result": 7.11}, {"measurement": "pIC50", "setting": "[7]", "result": 4.28}, {"measurement": "pEC50", "setting": "[4]", "result": 7.11}, {"measurement": "pEC50", "setting": "West Nile virus", "result": 7.11}]}, {"smiles": "Cc1nc2c(OC(F)F)cccc2n1-c1ccc(C(=O)NC2CC2)s1", "values": [{"measurement": "pIC50", "setting": "[6]", "result": 6.66}]}, {"smiles": "O=C(N[C@@H]1CCCc2c1[nH]c1ccc(Cl)cc21)c1ccccn1", "values": [{"measurement": "pIC50", "setting": "Dengue virus [8]", "result": 7.88}, {"measurement": "pKi", "setting": "[5]", "result": 6.69}]}, {"smiles": "C[C@H](c1ccc(-c2ccccc2)cc1)N(C)C(=O)CSc1nnnn1-c1ccc(O)cc1", "values": [{"measurement": "pIC50", "setting": "[9]", "result": 4.39}]}, {"smiles": "O=C1C(O)=C([C@H]2CC[C@H](c3ccc(Cl)cc3)CC2)C(=O)c2ccccc21", "note": "[ATOVAQUONE]", "values": [{"measurement": "Ratio IC50", "setting": "[10]", "result": 6}, {"measurement": "pIC50", "setting": "[7]", "result": 8.62}, {"measurement": "pIC50", "setting": "[5]", "result": 5.59}]}, {"smiles": "Cc1nc2c(C#N)cccc2n1-c1ccc(C(=O)NC2CC2)s1", "values": [{"measurement": "pIC50", "setting": "[6]", "result": 7.30}]}, {"smiles": "Cc1oncc1C(=O)Nc1ccc(C(F)(F)F)cc1", "note": "[LEFLUNOMIDE]", "values": [{"measurement": "pIC50", "setting": "[7]", "result": 4.28}]}, {"smiles": "O=C(Nc1c(F)c(F)c(-c2cccc(OC(F)(F)F)c2)c(F)c1F)c1ccsc1C(=O)O", "note": "[KIO-100]", "values": [{"measurement": "pIC50", "setting": "Human alphaherpesvirus 1", "result": "< 5.00"}, {"measurement": "pIC50", "setting": "Human alphaherpesvirus 3", "result": 8.45}, {"measurement": "pIC50", "setting": "[11]", "result": 8.81}, {"measurement": "pIC50", "setting": "Cytomegalovirus", "result": 5.82}, {"measurement": "pIC50", "setting": "Human alphaherpesvirus 2", "result": "< 5.00"}]}, {"smiles": "COc1ccc(-n2nc(C(=O)NCc3ccccc3)cc2C(=O)Nc2ccc(C(=O)N3CCCC3)cc2)cc1", "values": [{"measurement": "MIC", "setting": "Helicobacter pylori", "result": 3, "unit": "µg/mL"}, {"measurement": "pKi", "setting": "[1]", "result": 7.59}]}, {"smiles": "COc1ccc(-n2nc(C(=O)Nc3ccccc3O)cc2C(=O)Nc2ccc(C(=O)N3CCCC3)cc2)cc1", "values": [{"measurement": "pKi", "setting": "[1]", "result": 7.30}]}, {"smiles": "O=c1sn(-c2ccccc2)c(=O)n1-c1ccc(F)cc1", "values": [{"measurement": "pIC50", "setting": "[12]", "result": 7.12}, {"measurement": "pIC50", "setting": "[13]", "result": 6.08}, {"measurement": "pIC50", "setting": "[5]", "result": "< 4.00"}]}, {"smiles": "O=C(NCc1cccnc1)c1cc(C(=O)Nc2ccccc2)n(-c2ccc(Cl)cc2)n1", "values": [{"measurement": "MIC", "setting": "Helicobacter pylori", "result": 0.25, "unit": "µg/mL"}, {"measurement": "pKi", "setting": "[1]", "result": 8.40}]}, {"smiles": "CSC(=NCn1c(C/C=C(\\C)CCC=C(C)C)c(C)c(=O)c2ccccc21)SC", "values": [{"measurement": "pIC50", "setting": "[1]", "result": 4.95}]}, {"smiles": "Cc1cc(-c2ccccc2)c(C(=O)C(=O)Nc2ccc(N3CCN(c4ncc(F)cn4)CC3)cc2)n1C", "note": "[OLOROFIM]", "values": [{"measurement": "pIC50", "setting": "[14]", "result": 7.36}, {"measurement": "pIC50", "setting": "[5]", "result": "< 4.00"}]}, {"smiles": "Cc1[nH]c2ccc(-c3nnc(SCC(=O)N4CCCC4)o3)cc2c1C", "values": [{"measurement": "pIC50", "setting": "[9]", "result": 5.95}]}]}
